Here are results for 34 molecules from patent US7323469B2, “7H-pyrrolo[2,3-d]pyrimidine derivatives” (Novartis AG, priority 2001, dated 2008).

As a reminder, the melting point is the temperature of the solid-liquid transition.

The structures appear in SMILES notation. Some results are limits rather than exact numbers.

Take `COc1cccc(CNc2ncnc3[nH]c(-c4ccc(CN5CCOCC5)cc4)cc23)c1` [Example 107a, (3-Methoxy-benzyl)-[6-(4-morpholin-4-ylmethyl-phenyl)-7H-pyrrolo[2,3-d]pyrimidin-4-yl]-amine]: the melting point lay within 263 to 265 °C.

With `Cc1cccc(CNc2ncnc3[nH]c(-c4ccc(CN5CCOCC5)cc4)cc23)c1` [Example 107e, (3-Methyl-benzyl)-[6-(4-morpholin-4-ylmethyl-phenyl)-7H-pyrrolo[2,3-d]pyrimidin-4-yl]-amine], the melting point lay in the range of 259 to 261 °C.

Molecule `O=C(CN1CCCCC1)NCc1ccc(-c2cc3c(Nc4ccc(F)c(Cl)c4)ncnc3[nH]2)cc1` [Example 49, N-{4-[4-(3-Chloro-4-fluoro-phenylamino)-7H-pyrrolo[2,3-d]pyrimidin-6-yl]-benzyl}-2-piperidin-1-yl-acetamide] returned a melting point of 229 to 232 °C.

As to `CN1CCN(Cc2ccc(-c3cc4c(Nc5cccc(Cl)c5)ncnc4[nH]3)cc2)CC1.Cl.Cl`, the melting point fell in the range of 227 to 229 °C.

`C[C@@H](Nc1ncnc2[nH]c(-c3ccc(CNC(=O)CCCN(C)C)cc3)cc12)c1ccccc1` [Example 56, 4-Dimethylamino-N-{4-[4-((R)-1-phenyl-ethyl-amino)-7H-pyrrolo[2,3-d]pyrimidin-6-yl]-benzyl}-butyramide] returned a melting point of 195 to 203 °C.

In turn, `CC1CN(Cc2cccc(-c3cc4c(N[C@H](C)c5ccccc5)ncnc4[nH]3)c2)CC(C)N1` (stereo partly drawn) [Example 32, {6-[3-(3,5-Dimethyl-piperazin-1-ylmethyl)-phenyl]-7H-pyrrolo[2,3-d]pyrimidin-4-yl}-((R)-1-phenyl-ethyl)-amine] had a melting point of 128 to 130 °C.

Consider `Clc1ccccc1CNc1ncnc2[nH]c(-c3ccc(CN4CCCCC4)cc3)cc12` [Example 92, (2-Chloro-benzyl)-[6-(4-piperidin-1-ylmethyl-phenyl)-7H-pyrrolo[2,3-d]pyrimidin-4-yl]-amine], for which the melting point lay within 262 to 264 °C.

`Cc1ccc(Nc2ncnc3[nH]c(-c4ccc(CN5CCN(C)CC5)cc4)cc23)cc1O` [Example 72, 2-Methyl-5-{6-[4-(4-methyl-piperazin-1-ylmethyl)-phenyl]-7H-pyrrolo[2,3-d]pyrimidin-4-ylamino}-phenol] registered a melting point of more than 300 °C.

`Cc1cccc(CNc2ncnc3[nH]c(-c4ccc(CN5CCCCC5)cc4)cc23)c1` [Example 107d, (3-Methyl-benzyl)-[6-(4-piperidin-1-ylmethyl-phenyl)-7H-pyrrolo[2,3-d]pyrimidin-4-yl]-amine] had a melting point of 246 to 248 °C.

The molecule `O=C(CCN1CCCCC1)NCc1ccc(-c2cc3c(Nc4ccc(F)c(Cl)c4)ncnc3[nH]2)cc1` [Example 61, N-{4-[4-(3-Chloro-4-fluoro-phenylamino)-7H-pyrrolo[2,3-d]pyrimidin-6-yl]-benzyl}-3-piperidin-1-yl-propionamide] came in with a melting point of 230 to 235 °C.

On to `CN(C)Cc1ccc(-c2cc3c(Nc4cccc(Cl)c4)ncnc3[nH]2)cc1.Cl`, for which the melting point is 280 to 283 °C.

`c1ccc(COc2ccc(Nc3ncnc4[nH]c(-c5ccc(CN6CCCCC6)cc5)cc34)cc2)cc1` [Example 19, (4-Benzyloxy-phenyl)-[6-(4-piperidin-1-ylmethyl-phenyl)-7H-pyrrolo[2,3-d]pyrimidin-4-yl]-amine]: the melting point is 256 to 258 °C.

`c1ccc(COc2ccc(Nc3ncnc4[nH]c(-c5ccc(CN6CCOCC6)cc5)cc34)cc2)cc1` [Example 20, (4-Benzyloxy-phenyl)-[6-(4-morpholin-4-ylmethyl-phenyl)-7H-pyrrolo[2,3-d]pyrimidin-4-yl]-amine] returned a melting point of 272 to 274 °C.

`CCN(CC)Cc1ccc(-c2cc3c(Nc4ccc(OCc5ccccc5)cc4)ncnc3[nH]2)cc1` [Example 21, (4-Benzyloxy-phenyl)-[6-(4-diethylaminomethyl-phenyl)-7H-pyrrolo[2,3-d]pyrimidin-4-yl]-amine] yielded a melting point of 271 to 273 °C.

In turn, `CN(C)Cc1cccc(-c2cc3c(Nc4ccc(F)c(Cl)c4)ncnc3[nH]2)c1` [Example 33, (3-Chloro-4-fluoro-phenyl)-[6-(3-dimethylaminomethyl-phenyl)-7H-pyrrolo[2,3-d]pyrimidin-4-yl]-amine] showed a melting point of 218 to 220 °C.

In turn, `Clc1ccc(Cl)c(CNc2ncnc3[nH]c(-c4ccc(CN5CCCCC5)cc4)cc23)c1` [Example 100, (2,5-Dichloro-benzyl)-[6-(4-piperidin-1-ylmethyl-phenyl)-7H-pyrrolo[2,3-d]pyrimidin-4-yl]-amine] showed a melting point of 258 to 260 °C.

Take `CCNCc1ccc(-c2cc3c(N[C@H](C)c4ccccc4)ncnc3[nH]2)cc1` [Example 16f, [6-(4-Ethylaminomethyl-phenyl)-7H-pyrrolo[2,3-d]pyrimidin-4-yl]-((R)-1-phenyl-ethyl)-amine]: the melting point was in the range of 236 to 238 °C.

With `CCN1CCN(Cc2ccc(-c3cc4c(NCc5ccnc(OC)c5)ncnc4[nH]3)cc2)CC1` [Example 122, (2-Methoxy-pyridin-4-ylmethyl)-{6-[4-(4-ethyl-piperazin-1-ylmethyl)-phenyl]-7H-pyrrolo[2,3-d]pyrimidin-4-yl}-amine], the melting point was 210 to 212 °C.

As for `C[C@@H](Nc1ncnc2[nH]c(-c3ccc(CN4CCNCC4)cc3)cc12)c1ccccc1` [Example 145, ((R)-1-Phenyl-ethyl)-[6-(4-piperazin-1-ylmethyl-phenyl)-7H-pyrrolo[2,3-d]pyrimidin-4-yl]-amine], the melting point lay in the range of 240 to 242 °C.

Take `COc1ccc(Nc2ncnc3[nH]c(-c4ccc(CN5CCOCC5)cc4)cc23)cn1` [Example 111, (6-Methoxy-pyridin-3-yl)-[6-(4-morpholin-4-ylmethyl-phenyl)-7H-pyrrolo[2,3-d]pyrimidin-4-yl]-amine]: the melting point lay in the range of 263 to 264 °C.

Consider `CCN1CCN(Cc2cccc(-c3cc4c(Nc5ccc(F)c(Cl)c5)ncnc4[nH]3)c2)CC1` [Example 35, (3-Chloro-4-fluoro-phenyl)-{6-[3-(4-ethyl-piperazin-1-ylmethyl)-phenyl]-7H-pyrrolo[2,3-d]pyrimidin-4-yl}-amine], for which the melting point lay in the range of 238 to 240 °C.

`CC1CN(Cc2ccc(-c3cc4c(N[C@H](C)c5ccccc5)ncnc4[nH]3)cc2)CC(C)N1` (stereo partly drawn) [Example 16, {6-[4-(3,5-Dimethyl-piperazin-1-ylmethyl)-phenyl]-7H-pyrrolo[2,3-d]pyrimidin-4-yl}-((R)-1-phenyl-ethyl)-amine] displayed a melting point of 208 to 210 °C.

The molecule `CN(C)CC(=O)NCc1cccc(-c2cc3c(Nc4ccc(F)c(Cl)c4)ncnc3[nH]2)c1` [Example 64, N-{3-[4-(3-Chloro-4-fluoro-phenylamino)-7H-pyrrolo[2,3-d]pyrimidin-6-yl]-benzyl}-2-dimethylamino-acetamide] yielded a melting point of 272 to 273 °C.

`COc1cccc(CNc2ncnc3[nH]c(-c4ccc(CN5CCCC5)cc4)cc23)c1` [Example 106, (3-Methoxy-benzyl)-[6-(4-pyrrolidin-1-ylmethyl-phenyl)-7H-pyrrolo[2,3-d]pyrimidin-4-yl]-amine] came in with a melting point of 220 to 222 °C.

Take `COc1ccc(Nc2ncnc3[nH]c(-c4ccc(CN5CCN(C)CC5)cc4)cc23)cn1` [Example 112, (6-Methoxy-pyridin-3-yl)-{6-[4-(4-methyl-piperazin-1-ylmethyl)-phenyl]-7H-pyrrolo[2,3-d]pyrimidin-4-yl}-amine]: the melting point was 241 to 242 °C.

In turn, `Fc1ccc(Nc2ncnc3[nH]c(-c4cccc(CN5CCCC5)c4)cc23)cc1Cl` [Example 36, (3-Chloro-4-fluoro-phenyl)-[6-(3-pyrrolidin-1-ylmethyl-phenyl)-7H-pyrrolo[2,3-d]pyrimidin-4-yl]-amine] came in with a melting point of 238 to 240 °C.

With `C[C@@H](Nc1ncnc2[nH]c(-c3ccc(CN4CCN(C)CC4)cc3)cc12)c1ccccc1` [Example 9, {6-[4-(4-Methyl-piperazin-1-ylmethyl)-phenyl]-7H-pyrrolo[2,3-d]pyrimidin-4-yl}-((R)-1-phenyl-ethyl)-amine], the melting point is 248 to 250 °C.

Take `C[C@@H](Nc1ncnc2[nH]c(-c3cccc(CN(C)C)c3)cc12)c1ccccc1` [Example 25, [6-(3-Dimethylaminomethyl-phenyl)-7H-pyrrolo[2,3-d]pyrimidin-4-yl]-((R)-1-phenyl-ethyl)-amine]: the melting point lay in the range of 108 to 110 °C.

With `CCN1CCN(Cc2ccc(-c3cc4c(NCc5ccccc5Cl)ncnc4[nH]3)cc2)CC1` [Example 91, (2-Chloro-benzyl)-{6-[4-(4-ethyl-piperazin-1-ylmethyl)-phenyl]-7H-pyrrolo[2,3-d]pyrimidin-4-yl}-amine], the melting point is 255 to 256 °C.

Take `Cc1cccc(CNc2ncnc3[nH]c(-c4ccc(CN5CCN(C)CC5)cc4)cc23)c1` [Example 107i, (3-Methyl-benzyl)-{6-[4-(4-methyl-piperazin-1-ylmethyl)-phenyl]-7H-pyrrolo[2,3-d]pyrimidin-4-yl}-amine]: the melting point was in the range of 244 to 246 °C.

With `CN(C)Cc1ccc(-c2cc3c(NCc4ccccc4Cl)ncnc3[nH]2)cc1` [Example 90, (2-Chloro-benzyl)-[6-(4-dimethylaminomethyl-phenyl)-7H-pyrrolo[2,3-d]pyrimidin-4-yl]-amine], the melting point fell in the range of 256 to 258 °C.

The molecule `Fc1ccc(Nc2ncnc3[nH]c(-c4cccc(CN5CCCCC5)c4)cc23)cc1Cl` [Example 38, (3-Chloro-4-fluoro-phenyl)-[6-(3-piperidin-1-ylmethyl-phenyl)-7H-pyrrolo[2,3-d]pyrimidin-4-yl]-amine] came in with a melting point of 233 to 235 °C.

Take `CCN1CCN(CC(=O)NCc2ccc(-c3cc4c(Nc5ccc(F)c(Cl)c5)ncnc4[nH]3)cc2)CC1` [Example 47, N-{4-[4-(3-Chloro-4-fluoro-phenylamino)-7H-pyrrolo[2,3-d]pyrimidin-6-yl]-benzyl}-2-(4-ethyl-piperazin-1-yl)-acetamide]: the melting point was in the range of 245 to 247 °C.

`Cc1cc2c(F)c(Oc3ncnc4[nH]c(-c5ccc(CN6CCOCC6)cc5)cc34)ccc2[nH]1` [Example 143, 4-(4-Fluoro-2-methyl-1H-indol-5-yloxy)-6-(4-morpholin-4-ylmethyl-phenyl)-7H-pyrrolo[2,3-d]pyrimidine] registered a melting point of 280 to 282 °C.
